Experimental data published in US20240189389A1, “DRUG WITH PROLONGED ANALGESIC ACTION” (priority 2020, published 2024).

How the values were obtained:
[1] = phase I clinical trial data; cited from earlier work
TRPV1 = target: T1, TRPV1 (Homo sapiens, UniProt Q8NER1); settings: high dose (400 mg); cited from earlier work
T1 construct: host or cells: human subjects (in vivo)

[2] = reduced only in part with repeated dosing; cited from earlier work
ICR male white mice = assay: Formalin test on mice; type: in vivo; settings: oral, 100 mg/kg (positive control)
Experimental: Tests are performed on ICR male white mice of 20-30 g body weight. Mice are divided into 4 groups (a control one and experimental ones) of 9 mice each. The tested HCRG21 peptide is dissolved in a sterile physiological saline solution and is administered intramuscularly at the doses of 0.1 and 1.0 mg/kg. Control animals receive the equivalent volume of sterile physiological saline solution. Ibuprofen at the dose of 100 mg/kg is used as a positive control and is administered to animals orally. 60 minutes later all mice are injected in a hinder paw pad with 20 μl of 2.5% formalin solution. Patterns of pain response are recorded immediately after the injection (a number of paw licking episodes and a hind paw withdrawal time) according to the following schedule:
1st period (acute): for 20 min after the injection patterns are recorded per 1 min with 6-minute intervals (0, 6, 12 and 18 min);
2nd period (tonic): 30 min after the formalin injection patterns are recorded for 20 min per 1 min with 6-minute intervals (30, 36, 42, 48 min).
The analgesic effect is evaluated by the decrease of the duration of pain response patterns relative to control animals (FIG. 9). The results are statistically processed, statistical significance of differences of the results of control and experimental group is determined using the Student's test.

T1 sequence (Q8NER1 whole entry): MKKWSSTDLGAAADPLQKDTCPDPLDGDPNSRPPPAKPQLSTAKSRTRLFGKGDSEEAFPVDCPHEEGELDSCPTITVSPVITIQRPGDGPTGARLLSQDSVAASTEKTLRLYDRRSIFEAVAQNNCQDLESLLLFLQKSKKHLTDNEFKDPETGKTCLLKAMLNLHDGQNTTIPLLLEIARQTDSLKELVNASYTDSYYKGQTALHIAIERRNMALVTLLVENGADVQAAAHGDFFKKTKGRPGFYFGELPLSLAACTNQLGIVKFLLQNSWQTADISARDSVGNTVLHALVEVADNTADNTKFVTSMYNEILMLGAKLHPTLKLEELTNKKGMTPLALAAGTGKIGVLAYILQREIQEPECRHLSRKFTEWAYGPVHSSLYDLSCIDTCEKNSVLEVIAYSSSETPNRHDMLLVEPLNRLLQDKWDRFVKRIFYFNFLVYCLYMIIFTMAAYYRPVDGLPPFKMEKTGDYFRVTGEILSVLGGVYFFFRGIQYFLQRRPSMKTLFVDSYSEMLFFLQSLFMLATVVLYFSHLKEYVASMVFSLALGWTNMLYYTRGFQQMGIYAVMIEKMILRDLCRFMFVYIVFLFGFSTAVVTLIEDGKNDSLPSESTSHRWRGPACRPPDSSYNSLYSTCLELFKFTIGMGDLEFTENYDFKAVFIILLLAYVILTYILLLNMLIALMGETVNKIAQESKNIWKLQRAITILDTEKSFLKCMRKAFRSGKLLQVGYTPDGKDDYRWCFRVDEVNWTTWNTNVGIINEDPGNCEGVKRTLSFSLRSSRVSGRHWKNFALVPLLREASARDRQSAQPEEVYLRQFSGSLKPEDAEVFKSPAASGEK

SMILES: O=C(Nc1ccccc1Br)N[C@@H]1CCN(c2ccc(C(F)(F)F)cn2)C1 [SB-705498]
- elimination half-life [1]: 35 to 93 h
- pharmacodynamic activity in the reduction of inflammation induced by heat injuries, UV radiation and capsaicin (TRPV1): evidences a target pharmacodynamic activity

SMILES: CC(=O)Nc1nc2c(Oc3cc(-c4ccc(C(F)(F)F)cc4)ncn3)cccc2s1 [AMG-517]
- temperature increase in humans [2]: high and steady temperature increase

SMILES: CC(C)Cc1ccc(C(C)C(=O)O)cc1 (stereo not shown) [Ibuprofen, ibuprofen]
- analgesic properties compared with HCRG21 (ICR male white mice): concedes much to the HCRG21 peptide
